Where a name gives a salt, the structure may show the parent alone.
Assay: Color difference after degasification of vial at various pressures and replacement by nitrogen
Assay type: physicochemical
Details: 60° C., n = 6
Description: As the monohydrate, the powdery charged preparations for injection of the novel carbapenem crystals (25 mg/vial) obtained by degasification of the air in the vial at 100, 10, 1, 0.1 and 0.01 hPa (hectopascal) respectively and subsequent replacement by nitrogen according to the method in Example 2-3 (replacement by nitrogen) were stored at 60° C. for 1 or 4 weeks (N=6) and then measured for their color difference (ΔE). The oxygen concentrations in the preparations in vials degasified at 100, 10, 1, 0.1, 0.01 hPa (hectopascal) were measured by an oxygen analyzer (RO-101, Iizima Kogyo). As the trihydrate, the powdery charged preparations of the novel carbapenem hydrochloride crystals (25 mg/vial) obtained in the method in Example 1-9 (replacement by nitrogen) were degasified in the same manner, stored at 80° C. for 1 week (N=6) and then measured for their color difference (ΔE). As the control, the powdery charged preparation of the novel carbapenem hydrochloride crystals (25 mg/vial) subjected to neither degasification nor replacement by nitrogen was used.

color difference (ΔE) (control: neither degasification nor replacement by nitrogen, 1 week): 7.37
color difference (ΔE) (control: neither degasification nor replacement by nitrogen, 4 weeks): 14.94
color difference (ΔE) (vial degasified at 0.01 hPa (oxygen concentration 0.24 ± 0.03%), replaced by nitrogen, 1 week): 3.11
color difference (ΔE) (vial degasified at 0.01 hPa (oxygen concentration 0.24 ± 0.03%), replaced by nitrogen, 4 weeks): 4.91
color difference (ΔE) (vial degasified at 0.1 hPa (oxygen concentration 0.21 ± 0.01%), replaced by nitrogen, 1 week): 2.28
color difference (ΔE) (vial degasified at 0.1 hPa (oxygen concentration 0.21 ± 0.01%), replaced by nitrogen, 4 weeks): 4.98
color difference (ΔE) (vial degasified at 1 hPa (oxygen concentration 0.24 ± 0.04%), replaced by nitrogen, 1 week): 2.62
color difference (ΔE) (vial degasified at 1 hPa (oxygen concentration 0.24 ± 0.04%), replaced by nitrogen, 4 weeks): 4.51
color difference (ΔE) (vial degasified at 10 hPa (oxygen concentration 0.29 ± 0.08%), replaced by nitrogen, 1 week): 2.40
color difference (ΔE) (vial degasified at 10 hPa (oxygen concentration 0.29 ± 0.08%), replaced by nitrogen, 4 weeks): 5.69
color difference (ΔE) (vial degasified at 100 hPa (oxygen concentration 3.01 ± 1.12%), replaced by nitrogen, 1 week): 2.85
color difference (ΔE) (vial degasified at 100 hPa (oxygen concentration 3.01 ± 1.12%), replaced by nitrogen, 4 weeks): 8.02
SMILES: C[C@@H](O)[C@H]1C(=O)N2C(C(=O)O)=C(S[C@@H]3CN[C@H]([C@H](O)[C@@H]4CCNC4)C3)[C@H](C)[C@H]12 [monohydrate, (+)-(1R,5S,6S)-6-[(R)-1-Hydroxyethyl]-1-methyl-2-[(2S,4S)-2-[(3R)-pyrrolidine-3-yl-(R)-hydroxymethyl]pyrrolidine-4-yl]thio-1-carbapen-2-em-3-carboxylic acid monohydrochloride monohydrate]
